Test results taken from BindingDB's records for patent US20230271939 (Ip2Ipo Innovations, 2023).

Tests used:
[1] = target: T1, eIF-2-alpha kinase GCN2 (Homo sapiens, UniProt Q9P2K8); assay: GCN2 Enzyme Inhibition (ATP 10 uM)
Method: (§1) The inhibitory activity of the Example compounds towards GCN2 enzyme was measured according to the description below, using a LanthaScreen TR-FRET (Time Resolved Fluorescence Resonance Energy Transfer) Kinase Activity assay distributed by ThermoFisher Scientific. The full-length human GCN2 enzyme (UniProt accession number Q9P2K8) was used for all experiments (Carna Bioscience). The TR-FRET pair was composed of GFP-eIF2α and LanthaScreen Terbium-labeled anti-peIF2α (pSer52) Antibody. […] Full inhibition (3000 nM commercial reference inhibitor) and DMSO vehicle control wells were also included on the same plate. All volumes were normalized to the final DMSO concentration of 2% of the reaction volume. Next, 5 μL of H2O was added to each well of the plate.

[2] = target: T1, eIF-2-alpha kinase GCN2; assay: GCN2 Enzyme Inhibition (ATP 300 uM)
Method: as §1

T1 sequence (Q9P2K8 whole entry): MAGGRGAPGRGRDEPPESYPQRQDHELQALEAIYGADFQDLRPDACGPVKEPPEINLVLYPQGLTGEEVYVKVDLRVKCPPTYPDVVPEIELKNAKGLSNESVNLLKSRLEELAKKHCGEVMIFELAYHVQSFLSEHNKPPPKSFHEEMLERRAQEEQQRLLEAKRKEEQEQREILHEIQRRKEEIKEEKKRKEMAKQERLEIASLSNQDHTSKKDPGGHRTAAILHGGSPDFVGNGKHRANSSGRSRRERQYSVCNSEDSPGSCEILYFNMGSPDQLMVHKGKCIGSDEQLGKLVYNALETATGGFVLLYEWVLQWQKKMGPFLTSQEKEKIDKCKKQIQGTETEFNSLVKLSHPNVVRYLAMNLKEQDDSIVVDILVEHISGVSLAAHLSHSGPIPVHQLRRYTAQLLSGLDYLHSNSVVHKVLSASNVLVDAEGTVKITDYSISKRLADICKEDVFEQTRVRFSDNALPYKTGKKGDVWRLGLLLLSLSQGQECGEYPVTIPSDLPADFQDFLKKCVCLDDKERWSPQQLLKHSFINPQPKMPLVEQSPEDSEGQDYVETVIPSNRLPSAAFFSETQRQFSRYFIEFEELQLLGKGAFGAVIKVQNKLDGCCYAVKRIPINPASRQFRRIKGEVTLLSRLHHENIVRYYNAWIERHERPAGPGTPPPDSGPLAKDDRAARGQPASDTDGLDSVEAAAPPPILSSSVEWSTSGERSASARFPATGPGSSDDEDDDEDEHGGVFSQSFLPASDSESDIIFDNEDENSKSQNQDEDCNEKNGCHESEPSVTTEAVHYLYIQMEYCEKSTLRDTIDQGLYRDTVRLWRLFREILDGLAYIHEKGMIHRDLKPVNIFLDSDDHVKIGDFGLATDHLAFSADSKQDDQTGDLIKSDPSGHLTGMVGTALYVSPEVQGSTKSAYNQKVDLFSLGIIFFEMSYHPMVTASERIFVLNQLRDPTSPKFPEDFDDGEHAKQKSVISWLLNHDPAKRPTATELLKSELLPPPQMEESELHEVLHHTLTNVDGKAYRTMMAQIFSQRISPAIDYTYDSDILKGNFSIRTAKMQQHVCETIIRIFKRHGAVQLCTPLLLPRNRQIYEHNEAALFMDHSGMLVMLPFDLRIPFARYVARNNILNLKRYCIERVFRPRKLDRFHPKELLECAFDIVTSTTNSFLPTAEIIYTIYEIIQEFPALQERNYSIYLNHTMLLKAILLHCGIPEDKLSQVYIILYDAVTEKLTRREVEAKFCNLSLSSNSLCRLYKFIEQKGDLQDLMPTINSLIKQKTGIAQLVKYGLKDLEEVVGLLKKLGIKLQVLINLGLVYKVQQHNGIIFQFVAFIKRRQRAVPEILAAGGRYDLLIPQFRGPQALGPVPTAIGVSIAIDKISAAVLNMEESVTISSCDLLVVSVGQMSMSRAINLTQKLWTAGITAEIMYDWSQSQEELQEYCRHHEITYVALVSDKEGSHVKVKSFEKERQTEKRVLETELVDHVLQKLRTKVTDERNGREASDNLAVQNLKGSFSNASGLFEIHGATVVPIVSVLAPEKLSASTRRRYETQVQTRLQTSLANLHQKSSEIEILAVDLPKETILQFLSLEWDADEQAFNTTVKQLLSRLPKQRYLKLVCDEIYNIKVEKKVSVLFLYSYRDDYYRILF

Compound: COc1ncc(Cl)cc1S(=O)(=O)Nc1ncc(F)c(C#Cc2cnc(N)nc2)c1F [US20230271939, Example 10]
- IC50 [1]: 19.1 nM
- Ki [1]: 6.1 nM
- IC50 [2]: 57.3 nM
- Ki [2]: 0.9 nM
